Test results taken from patent publication US6664398B2, “Derivatives of erythromycin, their preparation process and their use as medicaments” (Aventis Pharma S.A., priority 1999, dated 2003).

Assays:
Type in all cases: cell-based
S. agalactiae 02B1HT1 = experiment: Method of dilutions in liquid medium (M.I.C.); settings: reading after 24 hours, 37° C.
Experimental: (§1) Method of dilutions in liquid medium A series of tubes is prepared in which the same quantity of nutritive sterile medium is distributed. Increasing quantities of the product to be studied are distributed into each tube, then each tube is sown with a bacterial strain. After incubation for twenty-four hours in a heating chamber at 37° C., the growth inhibition is evaluated by transillumination, which allows the minimal inhibitory concentrations (M.I.C.) to be determined, expressed in micrograms/cm^3. The following results were obtained with the product of Example 1: (reading after 24 hours)

S. agalactiae 02B1SJ1c = experiment: Method of dilutions in liquid medium (M.I.C.); settings: reading after 24 hours, 37° C.
Experimental: as §1

S. aureus 011GO25i = experiment: Method of dilutions in liquid medium (M.I.C.); settings: reading after 24 hours, 37° C.
Experimental: as §1

S. aureus 011UC4 = experiment: Method of dilutions in liquid medium (M.I.C.); settings: reading after 24 hours, 37° C.
Experimental: as §1

S. epidermidis 012GO11i = experiment: Method of dilutions in liquid medium (M.I.C.); settings: reading after 24 hours, 37° C.
Experimental: as §1

S. faecalis 02D2DU15c = experiment: Method of dilutions in liquid medium (M.I.C.); settings: reading after 24 hours, 37° C.
Experimental: as §1

S. faecalis 02D2UC1 = experiment: Method of dilutions in liquid medium (M.I.C.); settings: reading after 24 hours, 37° C.
Experimental: as §1

S. faecium 02D3HT1 = experiment: Method of dilutions in liquid medium (M.I.C.); settings: reading after 24 hours, 37° C.
Experimental: as §1

S. mitis 02MitCB1 = experiment: Method of dilutions in liquid medium (M.I.C.); settings: reading after 24 hours, 37° C.
Experimental: as §1

S. mitis 02MitGR16i = experiment: Method of dilutions in liquid medium (M.I.C.); settings: reading after 24 hours, 37° C.
Experimental: as §1

S. pneumoniae 030CR18c = experiment: Method of dilutions in liquid medium (M.I.C.); settings: reading after 24 hours, 37° C.
Experimental: as §1

S. pneumoniae 030GR20 = experiment: Method of dilutions in liquid medium (M.I.C.); settings: reading after 24 hours, 37° C.
Experimental: as §1

S. pneumoniae 030PW23c = experiment: Method of dilutions in liquid medium (M.I.C.); settings: reading after 24 hours, 37° C.
Experimental: as §1

S. pneumoniae 030RO1i = experiment: Method of dilutions in liquid medium (M.I.C.); settings: reading after 24 hours, 37° C.
Experimental: as §1

S. pneumoniae 030SJ1c = experiment: Method of dilutions in liquid medium (M.I.C.); settings: reading after 24 hours, 37° C.
Experimental: as §1

S. pneumoniae 030SJ5i = experiment: Method of dilutions in liquid medium (M.I.C.); settings: reading after 24 hours, 37° C.
Experimental: as §1

S. pneumoniae 032UC1 = experiment: Method of dilutions in liquid medium (M.I.C.); settings: reading after 24 hours, 37° C.
Experimental: as §1

S. pyogenes 02A1UC1 = experiment: Method of dilutions in liquid medium (M.I.C.); settings: reading after 24 hours, 37° C.
Experimental: as §1

S. sanguis 02SGr10i = experiment: Method of dilutions in liquid medium (M.I.C.); settings: reading after 24 hours, 37° C.
Experimental: as §1

[1] = test system: Streptococcus gr.G 02GOGR5; experiment: Method of dilutions in liquid medium (M.I.C.); settings: reading after 24 hours, 37° C.
Experimental: as §1

[2] = test system: Haemophilus Influenzae 351HT3, 351CB12, 351CA1 and 351GR6; experiment: Activity on gram-negative bacterial strains
Experimental: as §1

CC[C@H]1OC(=O)[C@H](C)C(=O)[C@H](C)[C@@H](O[C@@H]2O[C@H](C)C[C@H](N(C)C)[C@H]2O)[C@](C)(OC)C[C@@H](C)C(=O)[C@H](C)[C@H]2N(CCCCn3ccc(-c4cccnc4)n3)C(=O)O[C@]12C [Example 1, 11,12-dideoxy-3-de[(2,6-dideoxy-3-C-methyl-3-O-methyl-α-L-ribohexopyranosyl)oxy]-6-O-methyl-3-oxo-12,11-[oxycarbonyl[[4-[3-(3-pyridinyl)-1H-pyrazol-1-yl]butyl]imino]]-erythromycin]
minimal inhibitory concentrations (M.I.C.) (S. agalactiae 02B1HT1): 0.02 micrograms/cm^3 | minimal inhibitory concentrations (M.I.C.) (S. agalactiae 02B1SJ1c): 0.050 micrograms/cm^3 | minimal inhibitory concentrations (M.I.C.) (S. aureus 011GO25i): 0.600 micrograms/cm^3 | minimal inhibitory concentrations (M.I.C.) (S. aureus 011UC4; S. aureus 011UC4+ 50% serum): 0.600 micrograms/cm^3 | minimal inhibitory concentrations (M.I.C.) (S. aureus 011UC4; S. aureus 011UC4): 0.040 micrograms/cm^3 | minimal inhibitory concentrations (M.I.C.) (S. epidermidis 012GO11i): 0.040 micrograms/cm^3 | minimal inhibitory concentrations (M.I.C.) (S. faecalis 02D2DU15c): 5.000 micrograms/cm^3 | minimal inhibitory concentrations (M.I.C.) (S. faecalis 02D2UC1): 0.02 micrograms/cm^3 | minimal inhibitory concentrations (M.I.C.) (S. faecium 02D3HT1): 0.02 micrograms/cm^3 | minimal inhibitory concentrations (M.I.C.) (S. mitis 02MitCB1): 0.02 micrograms/cm^3 | minimal inhibitory concentrations (M.I.C.) (S. mitis 02MitGR16i): 0.02 micrograms/cm^3 | minimal inhibitory concentrations (M.I.C.) (S. pneumoniae 030CR18c): 0.300 micrograms/cm^3 | minimal inhibitory concentrations (M.I.C.) (S. pneumoniae 030GR20): 0.02 micrograms/cm^3 | minimal inhibitory concentrations (M.I.C.) (S. pneumoniae 030PW23c): 0.02 micrograms/cm^3 | minimal inhibitory concentrations (M.I.C.) (S. pneumoniae 030RO1i): 0.150 micrograms/cm^3 | minimal inhibitory concentrations (M.I.C.) (S. pneumoniae 030SJ1c): 0.150 micrograms/cm^3 | minimal inhibitory concentrations (M.I.C.) (S. pneumoniae 030SJ5i): 0.040 micrograms/cm^3 | minimal inhibitory concentrations (M.I.C.) (S. pneumoniae 032UC1): 0.02 micrograms/cm^3 | minimal inhibitory concentrations (M.I.C.) (S. pyogenes 02A1UC1): 0.02 micrograms/cm^3 | minimal inhibitory concentrations (M.I.C.) (S. sanguis 02SGr10i): 0.02 micrograms/cm^3 | minimal inhibitory concentrations (M.I.C.) [1]: 0.02 micrograms/cm^3 | activity on gram-negative bacterial strains [2]: useful activity
